How the values were obtained:
Human red blood cells = assay: CAP-e bioassay (cellular antioxidant protection assay of red blood cells); type: cell-based; settings: AAPH-induced oxidative damage, FIGS. 3-5
Protocol: Cellular antioxidant protection (CAP-e) assay of red blood cells was used to evaluate the capacity of antioxidant complexes to protect cells from oxidative stress after the antioxidant complexes enter the cells.
Human red blood cells were treated for 20 minutes using the antioxidant complex serially diluted in physiological saline. During this incubation period, the antioxidant complexes that may pass through a cell membrane may enter the cells. After exposure of the red blood cells to the antioxidant complex which was tested twice for each dose of the antioxidant complex, the red blood cells were washed twice with PBS to remove the antioxidant complex that was not absorbed by the cells.
The red blood cells were loaded with an indicator dye DCF-DA that becomes fluorescent when oxidized, and then a peroxyl free radical generator AAPH was added thereto to induce oxidative damage to the cells. A relative fluorescence intensity of each cell culture was measured at 488 nanometers using a Tecan Spectrafluor plate reader (Tecan, Männedorf, Switzerland). A reference for oxidation at the cellular level was defined based on a low fluorescence intensity of untreated control cells (cells treated with PBS but not treated with a test product or AAPH). A positive control for cellular oxidative damage was defined as red blood cells exposed to AAPH alone under the absence of the antioxidant complex. […]

Solubility = type: physicochemical; settings: powder introduced into physiological saline
Description: The simple mixture is not preferable for a preparation method of the antioxidant complex according to the inventive concept.

solubility in physiological saline (Solubility): almost completely insoluble
Structure (SMILES): O=C1c2c(O)cc(O)cc2O[C@H](c2ccc(O)c(O)c2)[C@H]1O [dihydroquercetin powder, dihydroquercetin]
intracellular antioxidant capacity / cell protective capacity in CAP-e analysis (Human red blood cells): did not exhibit the intracellular antioxidant capacity

From patent publication US20210030654A1, “ANTIOXIDANT COMPLEX AND COMPOSITION FOR FORMING SAME” (priority 2018, published 2021)
